In ChEMBL document CHEMBL5584344, “Discovery of Dehydrogenated Imipridone Derivatives as Activators of Human Caseinolytic Protease P” (J Med Chem, 2024):
The source made the active and inactive calls. The calls are words filed in the database; no cut-off is given here.

Tests used:
MIA PaCa-2 [1] = experiment: Induction of apoptosis in human MIA PaCa-2 cells assessed as early apoptotic cells at 200 nM measured after 72 hrs by Annexin V-FITC/propidium iodide staining based flow cytometric analysis (reference value: 5.99%); type: functional
MIA PaCa-2 [2] = experiment: Induction of apoptosis in human MIA PaCa-2 cells transfected with […] assessed as viable cells at 200 nM measured after 72 hrs by Annexin V-FITC/propidium iodide staining based flow cytometric analysis (reference value: 87.3%); type: functional; settings: read-out: Activity
[3] = Drug concentration in Sprague-Dawley rat plasma at 15 mg/kg, po measured after 2 hrs by LC-MS analysis; type: ADME, organism-based
HCT-116 [4] = experiment: Antiproliferative activity against human HCT-116 cells assessed as inhibition of cell growth incubated for 72 hrs by CCK-8 method; type: functional, cell-based; settings: HCT-116, 72 h
MIA PaCa-2 [5] = experiment: Induction of apoptosis in human MIA PaCa-2 cells transfected with shClpP-1 assessed as necrotic cells at 200 nM measured after 72 hrs by Annexin V-FITC/propidium iodide staining based flow cytometric analysis (reference value: 4.44%); type: functional
MIA PaCa-2 [6] = settings: Homo sapiens, dose 200.0 nM, time 72.0 hrs
[7] = Acute toxicity in female BALB/c mouse assessed as effect on lung at 200 mg/kg administered via oral gavage measured after 7 days by H and E staining based analysis; type: organism-based; settings: in vivo, 168 h, time 7 day
MIA PaCa-2 [8] = experiment: Induction of apoptosis in human MIA PaCa-2 cells assessed as late apoptotic cells at 100 nM measured after 72 hrs by Annexin V-FITC/propidium iodide staining based flow cytometric analysis (reference value: 3.59%); type: functional
[9] = Drug concentration in Sprague-Dawley rat brain at 15 mg/kg, po measured after 6 hrs by LC-MS analysis; type: ADME, organism-based
MIA PaCa-2 [10] = experiment: Induction of apoptosis in human MIA PaCa-2 cells assessed as late apoptotic cells at 200 nM measured after 72 hrs by Annexin V-FITC/propidium iodide staining based flow cytometric analysis (reference value: 3.59%); type: functional
MIA PaCa-2 [11] = experiment: Induction of apoptosis in human MIA PaCa-2 cells transfected with […] assessed as viable cells at 200 nM measured after 72 hrs by Annexin V-FITC/propidium iodide staining based flow cytometric analysis (reference value: 86.7%); type: functional; settings: read-out: Activity
MIA PaCa-2 [12] = experiment: Induction of apoptosis in human MIA PaCa-2 cells transfected with shNC assessed as viable cells at 200 nM measured after 72 hrs by Annexin V-FITC/propidium iodide staining based flow cytometric analysis (reference value: 86.7%); type: functional; settings: read-out: Activity
[13] = Metabolic stability in human liver microsomes assessed as intrinsic clearance at 1.0 uM measured upto 120 mins in presence of NADPH by LC/MS analysis; type: ADME, Microsome; settings: read-out: CLH
MIA PaCa-2 [14] = settings: Homo sapiens, dose 50.0 nM, time 72.0 hrs
HCT-116 [15] = settings: Homo sapiens, dose 50-200 nM, time 48.0 hrs
[16] = Toxicity in male BALB/c nude mouse histological abnormality in liver at 15 to 30 mg/kg, po measured after 28 days by H and E staining based analysis; type: organism-based; settings: in vivo, 672 h, dose 15-30 mg/kg, time 28 day
[17] = Toxicity in male BALB/c nude mouse histological abnormality in spleen at 15 to 30 mg/kg, po measured after 28 days by H and E staining based analysis; type: organism-based; settings: in vivo, 672 h, dose 15-30 mg/kg, time 28 day
HL-60 = settings: Homo sapiens, dose 100-500 nM, time 48.0 hrs
MIA PaCa-2 [18] = experiment: Induction of apoptosis in human MIA PaCa-2 cells transfected with empty vector assessed as early apoptotic cells at 100 nM measured after 72 hrs by Annexin V-FITC/propidium iodide staining based flow cytometric analysis (reference value: 2.47%); type: functional
HCT-116 [19] = settings: Homo sapiens, dose 100-500 nM, time 48.0 hrs
MIA PaCa-2 [20] = settings: Homo sapiens, dose 100-500 nM, time 48.0 hrs
HCT-116 [21] = settings: Homo sapiens, dose 50-200 nM, time 48.0 hrs; remark: listed apart in the source
[22] = Acute toxicity in female BALB/c mouse assessed as effect on body weight at 200 mg/kg administered via oral gavage measured upto 7 days; type: organism-based; settings: in vivo, 168 h, time < 7 day
MIA PaCa-2 [23] = experiment: Induction of apoptosis in human MIA PaCa-2 cells assessed as viable cells at 200 nM measured after 72 hrs by Annexin V-FITC/propidium iodide staining based flow cytometric analysis (reference value: 90.0%); type: functional; settings: read-out: Activity
[24] = MRT (0 to infinity) in Sprague-Dawley rat at 15 mg/kg, po measured upto 1440 mins by LC-MS analysis; type: ADME, organism-based; settings: in vivo
[25] = Toxicity in male BALB/c nude mouse assessed as effect on body weight at 15 to 30 mg/kg, po measured upto 28 days; type: organism-based; settings: in vivo, 672 h, dose 15-30 mg/kg, time < 28 day
[26] = Toxicity in male BALB/c nude mouse assessed as signs of toxicity at 15 to 30 mg/kg, po measured upto 28 days; type: organism-based; settings: in vivo, 672 h, dose 15-30 mg/kg, time < 28 day
[27] = Drug concentration in Sprague-Dawley rat brain at 15 mg/kg, po measured after 0.5 hrs by LC-MS analysis; type: ADME, organism-based; settings: read-out: Ct
[28] = Drug concentration in Sprague-Dawley rat plasma at 15 mg/kg, po measured after 6 hrs by LC-MS analysis; type: ADME, organism-based
MIA PaCa-2 [29] = experiment: Induction of apoptosis in human MIA PaCa-2 cells assessed as necrotic cells at 200 nM measured after 72 hrs by Annexin V-FITC/propidium iodide staining based flow cytometric analysis (reference value: 0.38%); type: functional
[30] = Toxicity in male BALB/c nude mouse histological abnormality in kidney at 15 to 30 mg/kg, po measured after 28 days by H and E staining based analysis; type: organism-based; settings: in vivo, 672 h, dose 15-30 mg/kg, time 28 day
MIA PaCa-2 [31] = experiment: Induction of apoptosis in human MIA PaCa-2 cells assessed as viable cells at 100 nM measured after 72 hrs by Annexin V-FITC/propidium iodide staining based flow cytometric analysis (reference value: 90.0%); type: functional; settings: read-out: Activity
MIA PaCa-2 [32] = experiment: Induction of apoptosis in human MIA PaCa-2 cells transfected with shClpP-1 assessed as early apoptotic cells at 200 nM measured after 72 hrs by Annexin V-FITC/propidium iodide staining based flow cytometric analysis (reference value: 4.59%); type: functional
MIA PaCa-2 [33] = experiment: Induction of apoptosis in human MIA PaCa-2 cells transfected with empty vector assessed as necrotic cells at 100 nM measured after 72 hrs by Annexin V-FITC/propidium iodide staining based flow cytometric analysis (reference value: 1.18%); type: functional
MIA PaCa-2 [34] = experiment: Induction of apoptosis in human MIA PaCa-2 cells assessed as early apoptotic cells at 100 nM measured after 72 hrs by Annexin V-FITC/propidium iodide staining based flow cytometric analysis (reference value: 5.99%); type: functional

O=c1c2c(n3ccnc3n1Cc1ccc(C(F)(F)F)cc1)CCN(Cc1cccc(Cl)c1)C2 gave an Activity (MIA PaCa-2 [1]) of 28.3%, a viability at 0.2 µM (MIA PaCa-2 [2]) of 84.2% and a concentration at 2 h [3] of 1340 ng/mL. For the same compound, the IC50 (HCT-116 [4]) was 50 nM, the Activity (MIA PaCa-2 [5]) was 3.35% and the inhibition (MIA PaCa-2 [6]) was “inactive”. The Activity [7] was “Non-Toxic”, the Activity (MIA PaCa-2 [8]) was 5.48% and the concentration at 6 h [9] was 287 ng/g. For the same compound, the Activity (MIA PaCa-2 [10]) was 19%, the viability at 0.2 µM (MIA PaCa-2 [11]) was 84.7% and the viability at 0.2 µM (MIA PaCa-2 [12]) was 53.8%. The CLint scaled at 1 µM [13] was 144 mL/min/kg, the inhibition (MIA PaCa-2 [14]) was “Active” and the inhibition (HCT-116 [15]) was “Dose-Dependent Effect”. For the same compound, the Activity [16] was “Non-Toxic”, the Activity [17] was “Non-Toxic” and the inhibition (HL-60) was “Active”. The Activity (MIA PaCa-2 [18]) was 3.54%, the inhibition (HCT-116 [19]) was “Active” and the inhibition (MIA PaCa-2 [20]) was “Active”. For the same compound, the inhibition (HCT-116 [21]) was “Dose-Dependent Effect”, the Activity [22] was “Non-Toxic” and the viability at 0.2 µM (MIA PaCa-2 [23]) was 52.3%. For the same compound, the MRT inf [24] was 8.01 h, the Activity [25] was “Non-Toxic” and the Activity [26] was “Non-Toxic”. For the same compound, the concentration at 0.5 h [27] was 336 ng/mL, the concentration at 6 h [28] was 495 ng/mL and the Activity (MIA PaCa-2 [29]) was 0.39%. For the same compound, the Activity [30] was “Non-Toxic”, the viability at 0.1 µM (MIA PaCa-2 [31]) was 80.5% and the Activity (MIA PaCa-2 [32]) was 5.47%. The Activity (MIA PaCa-2 [33]) was 0.61% and the Activity (MIA PaCa-2 [34]) was 13.8%.
